Results from patent US8895551B2, “Acrylamide compounds and the use thereof” (Shionogi & Co., Ltd., priority 2009, dated 2014).

What follows are compounds tested against T1, N-type calcium channel (NTCC) (Homo sapiens, UniProt Q00975) (assay: FLIPR calcium mobilization assay for N-type calcium channel). Conditions: N-type calcium channel (NTCC) blockers after a calcium mobilization in vitro assay; differentiated IMR32 cells.
T1 construct: host or cells: IMR32 cells differentiated with dibutyryl cyclic AMP and bromodeoxyuridine
Assay type: cell-based
Description: Cell maintenance and differentiation. Unless noted otherwise, cell culture reagents were purchased from Mediatech of Herndon, Md. IMR32 cells (American Type Culture Collection, ATCC, Manassas, Va.) were routinely cultured in growth medium consisting of minimum essential medium containing 10% fetal bovine serum (FBS, Hyclone, Logan, Utah), 100 U/mL penicillin, 100 μg/mL streptomycin, 2 mM L-glutamine, 1 mM sodium pyruvate, and 1×MEM non-essential amino acids. 80-90% confluent flasks of cells were differentiated using the following differentiation medium: Growth medium plus 1 mM dibutyryl cyclic AMP (Sigma, St. Louis, Mo.), and 2.5 μM bromodeoxyuridine (Sigma). Cells were differentiated for 8 days by replacing differentiation medium every 2-3 days.
FLIPR Calcium Mobilization Assay for N-type Calcium Channel. One day prior to performing this assay, differentiated IMR32 cells were treated with 1× CellStripper, and seeded on poly-D-lysine-coated 96-well clear-bottom black plates (Becton Dickinson, Franklin Lakes, N.J.) at 200,000 cells/well. On the day of the assay, the cell plates were washed with IMR32 buffer (127 mM NaCl, 1 mM KCl, 2 mM MgCl2, 700 μM NaH2PO4, 5 mM CaCl2, 5 mM NaHCO3, 8 mM HEPES, 10 mM glucose, pH 7.4), then pre-stimulated with KCl and loaded as follows: 0.05 mL of IMR^32 buffer, 0.05 mL of each compound tested diluted in IMR^32 buffer containing 20 μM nitrendipine (Sigma), and 0.1 mL KCl dissolved in IMR^32 buffer, plus Fluo-4 were added (3 μM final concentration, Molecular Probes, Eugene, Oreg.). Final test compound concentrations ranged from about 846 μM to about 17 μM, final nitrendipine concentration was 5 μM, and final KCl concentration was 90 mM. After 1 hour, the cells were washed twice with 0.05 mL of each compound tested in nitrendipine-containing IMR32 buffer (no KCl or Fluo-4), and then replaced with 0.1 mL of each compound tested in nitrendipine-containing IMR^32 buffer. Plates were then transferred to a Fluorimetric Imaging Plate Reader (FLIPR^96, Molecular Devices, Inc., Sunnyvale, Calif.) for assay. The FLIPR measured basal Fluo-4 fluorescence for 315 seconds (i.e., 5 minutes and 15 seconds), then added 0.1 mL KCl agonist dissolved in IMR32 buffer and measured fluorescence for another 45 seconds. Final test compound concentrations on the cells after FLIPR read ranged from about 846 μM to about 17 μM, final nitrendipine concentration was 5 μM, and final KCl concentration was 90 mM. Data were collected over the entire time course and analyzed using Excel, Graph Pad Prism (version 3.02, Graph Pad, San Diego, Calif.), or an in-house non-linear regression analysis software.

T1 sequence (Q00975 whole entry): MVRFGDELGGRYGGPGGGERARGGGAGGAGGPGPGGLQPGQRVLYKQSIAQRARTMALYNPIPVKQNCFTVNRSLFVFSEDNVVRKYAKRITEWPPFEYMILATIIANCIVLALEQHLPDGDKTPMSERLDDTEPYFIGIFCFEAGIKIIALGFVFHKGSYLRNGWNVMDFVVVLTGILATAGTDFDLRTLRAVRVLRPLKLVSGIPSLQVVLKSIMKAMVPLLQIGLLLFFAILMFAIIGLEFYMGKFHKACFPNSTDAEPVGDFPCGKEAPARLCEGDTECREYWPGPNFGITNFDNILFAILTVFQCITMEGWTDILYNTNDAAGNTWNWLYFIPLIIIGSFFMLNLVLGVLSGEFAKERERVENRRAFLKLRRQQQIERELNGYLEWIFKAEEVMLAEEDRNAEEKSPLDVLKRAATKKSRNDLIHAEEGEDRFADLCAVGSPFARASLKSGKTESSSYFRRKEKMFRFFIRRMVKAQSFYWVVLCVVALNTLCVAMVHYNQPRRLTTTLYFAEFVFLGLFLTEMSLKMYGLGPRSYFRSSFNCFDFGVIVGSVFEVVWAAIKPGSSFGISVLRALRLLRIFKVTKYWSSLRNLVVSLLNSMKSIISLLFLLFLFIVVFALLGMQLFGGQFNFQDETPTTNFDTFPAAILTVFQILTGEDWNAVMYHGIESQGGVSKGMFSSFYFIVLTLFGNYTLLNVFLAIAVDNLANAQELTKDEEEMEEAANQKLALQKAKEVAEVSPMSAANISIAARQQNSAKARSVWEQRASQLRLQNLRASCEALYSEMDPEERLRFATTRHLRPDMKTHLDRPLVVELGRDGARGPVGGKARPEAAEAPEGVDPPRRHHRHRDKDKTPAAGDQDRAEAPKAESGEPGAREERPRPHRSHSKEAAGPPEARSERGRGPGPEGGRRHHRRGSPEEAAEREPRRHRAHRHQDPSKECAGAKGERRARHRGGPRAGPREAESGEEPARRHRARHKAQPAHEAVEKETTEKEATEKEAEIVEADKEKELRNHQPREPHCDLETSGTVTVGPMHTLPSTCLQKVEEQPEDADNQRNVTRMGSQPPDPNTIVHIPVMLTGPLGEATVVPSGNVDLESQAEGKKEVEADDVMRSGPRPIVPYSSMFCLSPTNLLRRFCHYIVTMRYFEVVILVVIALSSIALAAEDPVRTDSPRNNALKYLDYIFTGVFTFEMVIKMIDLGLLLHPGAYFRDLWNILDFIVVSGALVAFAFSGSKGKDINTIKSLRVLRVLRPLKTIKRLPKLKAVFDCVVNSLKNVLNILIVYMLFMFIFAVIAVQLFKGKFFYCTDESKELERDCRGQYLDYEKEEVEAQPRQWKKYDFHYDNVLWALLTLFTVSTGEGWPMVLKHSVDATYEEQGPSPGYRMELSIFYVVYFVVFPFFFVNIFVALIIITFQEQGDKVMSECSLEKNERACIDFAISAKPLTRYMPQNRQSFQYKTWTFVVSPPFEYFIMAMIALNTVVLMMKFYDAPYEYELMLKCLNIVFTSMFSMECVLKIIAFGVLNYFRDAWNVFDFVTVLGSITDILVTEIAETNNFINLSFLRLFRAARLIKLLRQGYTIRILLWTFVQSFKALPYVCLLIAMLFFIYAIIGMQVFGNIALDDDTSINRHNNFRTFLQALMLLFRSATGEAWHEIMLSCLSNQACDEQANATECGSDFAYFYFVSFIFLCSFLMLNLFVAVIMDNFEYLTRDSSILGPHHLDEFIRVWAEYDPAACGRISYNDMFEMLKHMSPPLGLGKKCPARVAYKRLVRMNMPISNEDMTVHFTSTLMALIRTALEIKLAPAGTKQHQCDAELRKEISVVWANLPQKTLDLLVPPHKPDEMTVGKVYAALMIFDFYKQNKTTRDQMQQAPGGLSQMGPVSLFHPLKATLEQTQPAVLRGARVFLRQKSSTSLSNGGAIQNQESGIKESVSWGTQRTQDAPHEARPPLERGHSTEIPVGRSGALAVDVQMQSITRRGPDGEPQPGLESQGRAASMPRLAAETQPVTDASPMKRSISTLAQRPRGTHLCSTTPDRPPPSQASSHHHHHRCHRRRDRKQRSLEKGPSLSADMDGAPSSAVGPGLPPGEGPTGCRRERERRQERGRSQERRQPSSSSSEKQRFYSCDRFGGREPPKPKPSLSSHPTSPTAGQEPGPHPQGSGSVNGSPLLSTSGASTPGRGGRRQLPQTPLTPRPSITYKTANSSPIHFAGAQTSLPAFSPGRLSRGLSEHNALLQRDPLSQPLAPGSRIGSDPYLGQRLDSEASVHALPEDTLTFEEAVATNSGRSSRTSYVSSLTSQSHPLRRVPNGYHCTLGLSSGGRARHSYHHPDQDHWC
T1 sequence (P54289 25-956 partner limits assumed): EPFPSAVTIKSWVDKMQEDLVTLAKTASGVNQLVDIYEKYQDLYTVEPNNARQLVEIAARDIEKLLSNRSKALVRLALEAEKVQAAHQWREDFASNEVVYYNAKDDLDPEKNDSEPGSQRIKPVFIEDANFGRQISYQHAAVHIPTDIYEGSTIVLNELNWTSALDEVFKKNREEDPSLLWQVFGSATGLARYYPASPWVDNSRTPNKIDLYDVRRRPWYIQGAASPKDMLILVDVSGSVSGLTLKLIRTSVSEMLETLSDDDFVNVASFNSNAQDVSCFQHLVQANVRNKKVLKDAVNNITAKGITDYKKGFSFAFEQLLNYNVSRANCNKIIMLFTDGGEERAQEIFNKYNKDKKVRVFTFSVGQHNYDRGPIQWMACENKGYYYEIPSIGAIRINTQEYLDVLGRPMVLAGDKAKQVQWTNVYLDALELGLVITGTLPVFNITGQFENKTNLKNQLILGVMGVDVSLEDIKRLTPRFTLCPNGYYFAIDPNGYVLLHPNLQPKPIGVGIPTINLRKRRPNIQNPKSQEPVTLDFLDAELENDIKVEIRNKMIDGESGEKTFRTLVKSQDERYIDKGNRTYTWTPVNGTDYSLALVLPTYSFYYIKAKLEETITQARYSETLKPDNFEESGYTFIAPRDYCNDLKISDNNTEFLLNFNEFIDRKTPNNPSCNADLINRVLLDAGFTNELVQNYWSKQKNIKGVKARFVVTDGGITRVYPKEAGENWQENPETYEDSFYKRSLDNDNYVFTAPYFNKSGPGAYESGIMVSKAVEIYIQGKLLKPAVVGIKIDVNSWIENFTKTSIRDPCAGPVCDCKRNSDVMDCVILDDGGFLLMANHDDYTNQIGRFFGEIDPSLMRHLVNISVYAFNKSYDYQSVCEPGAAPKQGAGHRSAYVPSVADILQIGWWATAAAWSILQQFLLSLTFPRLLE
T1 sequence (P54289 957-1103 partner limits assumed): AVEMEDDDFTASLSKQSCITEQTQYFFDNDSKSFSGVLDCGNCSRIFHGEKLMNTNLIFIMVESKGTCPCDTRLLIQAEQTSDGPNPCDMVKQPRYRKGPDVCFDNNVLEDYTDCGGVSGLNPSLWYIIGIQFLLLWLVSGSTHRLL
T1 sequence (P54284 whole entry partner): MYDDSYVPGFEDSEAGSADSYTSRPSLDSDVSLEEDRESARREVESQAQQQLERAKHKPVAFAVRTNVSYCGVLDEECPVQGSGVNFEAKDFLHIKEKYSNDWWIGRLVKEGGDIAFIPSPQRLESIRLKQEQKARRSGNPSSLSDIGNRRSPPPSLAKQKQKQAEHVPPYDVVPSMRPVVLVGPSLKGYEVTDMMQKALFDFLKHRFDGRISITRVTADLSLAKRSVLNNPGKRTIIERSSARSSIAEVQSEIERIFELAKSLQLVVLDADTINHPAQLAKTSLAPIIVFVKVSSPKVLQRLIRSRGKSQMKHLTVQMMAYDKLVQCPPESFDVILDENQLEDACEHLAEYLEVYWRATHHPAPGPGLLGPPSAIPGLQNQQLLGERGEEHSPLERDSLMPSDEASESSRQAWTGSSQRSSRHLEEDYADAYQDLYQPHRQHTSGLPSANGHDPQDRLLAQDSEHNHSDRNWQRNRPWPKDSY

SMILES | IC50 [µM]
O=C(C=C1CCN(S(=O)(=O)c2ccc(OC(F)(F)F)cc2)CC1)NCc1ccccc1 [Example 3, N-benzyl-2-(1-(4-(trifluoromethoxy)phenylsulfonyl)piperidin-4-ylidene)Acetamide] | 0.598
O=C(C=C1CCN(S(=O)(=O)c2ccc(OC(F)(F)F)cc2)CC1)NCc1ccc(F)cc1 [Example 9, N-(4-fluorobenzyl)-2-(1-(4-(trifluoromethoxy)phenylsulfonyl)piperidin-4-ylidene)Acetamide] | 0.115
CN(Cc1ccc(F)cc1)C(=O)C=C1CCN(S(=O)(=O)c2ccc(OC(F)(F)F)cc2)CC1 [Example 10, N-(4-fluorobenzyl)-N-methyl-2-(1-(4-(trifluoromethoxy)phenylsulfonyl)piperidin-4-ylidene)Acetamide] | 0.161
N#Cc1ccc(CNC(=O)C=C2CCN(S(=O)(=O)c3ccc(OC(F)(F)F)cc3)CC2)cc1 [Example 11, N-(4-cyanobenzyl)-2-(1-(4-(trifluoromethoxy)phenylsulfonyl)piperidin-4-ylidene)Acetamide] | 0.56
O=C(C=C1CCN(S(=O)(=O)c2ccc(OC(F)(F)F)cc2)CC1)NC1(c2ccc(F)cc2)CC1 [Example 12, N-(1-(4-fluorophenyl)cyclopropyl)-2-(1-(4-(trifluoromethoxy)phenylsulfonyl)piperidin-4-ylidene)Acetamide] | 0.361
O=C(C=C1CCN(S(=O)(=O)c2ccc(OC(F)(F)F)cc2)CC1)NCCC1CC1 [Example 13, N-(2-cyclopropylethyl)-2-(1-(4-(trifluoromethoxy)phenylsulfonyl)piperidin-4-ylidene)Acetamide] | 0.248
CC(C)OCCNC(=O)C=C1CCN(S(=O)(=O)c2ccc(OC(F)(F)F)cc2)CC1 [Example 15, N-(2-isopropoxyethyl)-2-(1-(4-(trifluoromethoxy)phenylsulfonyl)piperidin-4-ylidene)Acetamide] | 0.718
COC(=O)C(NC(=O)C=C1CCN(S(=O)(=O)c2ccc(OC(F)(F)F)cc2)CC1)c1ccc(F)cc1 (centres unmarked) [Example 19, methyl 2-(4-fluorophenyl)-2-(2-(1-(4-(trifluoromethoxy)phenylsulfonyl)piperidin-4-ylidene)acetamido)Acetate] | 0.865
O=C(C=C1CCN(S(=O)(=O)c2ccc(OC(F)(F)F)cc2)CC1)NC(CO)c1ccc(F)cc1 (centres unmarked) [Example 20, N-(1-(4-fluorophenyl)-2-hydroxyethyl)-2-(1-(4-(trifluoromethoxy)phenylsulfonyl)piperidin-4-ylidene)acetamide] | 0.822
O=C(C=C1CCN(S(=O)(=O)c2cccc(C(F)(F)F)c2)CC1)NCC1CC1 [Example 22, N-(cyclopropylmethyl)-2-(1-(3-(trifluoromethyl)phenylsulfonyl)piperidin-4-ylidene)acetamide] | 0.829
CC(C)(c1cccc(C(F)(F)F)c1)N1CCC(=CC(=O)NCC2CC2)CC1 [Example 31, N-(cyclopropylmethyl)-2-(1-(2-(3-(trifluoromethyl)phenyl)propan-2-yl)piperidin-4-ylidene)acetamide] | 0.681
COC(C(=O)NCC1CC1)=C1CCN(S(=O)(=O)c2ccc(OC(F)(F)F)cc2)CC1 [Example 32, N-(cyclopropylmethyl)-2-methoxy-2-(1-(4-(trifluoromethoxy)phenylsulfonyl)piperidin-4-ylidene)acetamide] | 0.912
CO/C(=C\C1CCN(S(=O)(=O)c2ccc(OC(F)(F)F)cc2)CC1)C(=O)NC1CC1 [Example 37, (Z)—N-cyclopropyl-2-methoxy-3-(1-(4-(trifluoromethoxy)phenylsulfonyl)piperidin-4-yl)acrylamide] | 0.555
CO/C(=C/C1CCN(S(=O)(=O)c2ccc(OC(F)(F)F)cc2)CC1)C(=O)NC1CC1 [Example 38, (E)-N-cyclopropyl-2-methoxy-3-(1-(4-(trifluoromethoxy)phenylsulfonyl)piperidin-4-yl)acrylamide] | 0.832
O=C(/C=C1\CCCN(S(=O)(=O)c2ccc(OC(F)(F)F)cc2)C1)NCC1CC1 [Example 40, (E)-N-(cyclopropylmethyl)-2-(1-(4-(trifluoromethoxy)phenylsulfonyl)piperidin-3-ylidene)acetamide] | 0.695
O=C(/C=C1\CCCN(S(=O)(=O)c2ccc(OC(F)(F)F)cc2)C1)NC1CC1 [Example 41, (E)-N-cyclopropyl-2-(1-(4-(trifluoromethoxy)phenylsulfonyl)piperidin-3-ylidene)acetamide] | 0.99
CO/C(=C\C1CN(S(=O)(=O)c2ccc(OC(F)(F)F)cc2)CCO1)C(=O)NC1CC1 (centres unmarked) [Example 44, (Z)—N-cyclopropyl-2-methoxy-3-(4-(4-(trifluoromethoxy)phenylsulfonyl)morpholin-2-yl)acrylamide] | 0.857
